{"source": "patent US11141429B2", "about": "“Composition and use of macro-minerals to lower postprandial glycemic response and reduce body weight” (American University of Beirut, priority 2016, dated 2021)", "type_in_all_cases": "in vivo, human", "key": {"[1]": {"tested_on": "healthy male subjects", "assay": "Experiment 1: effect of phosphorus ingestion on oral glucose tolerance test (OGTT)", "experimental": "(§1) The example was comprised of two experiments. Healthy male subjects were recruited to perform the experiments (Table 1). Placebo (cellulose) or P (125 mg of potassium phosphate per tablet) tablets, which had similar weight and color, were administered to subjects in a randomized order to prevent order-of-treatment effect. The consent forms were obtained from patients.\nSeven overnight fasted subjects (age (mean±SEM): 23.2±1.83 years; BMI: 22.65±0.82 kg/m2) (Table 1: Experiment 1) were asked to attend 3 experimental sessions that were separated by a minimum of 3 days. Sessions included the consumption of either 500 mg of P (4 tablets), a glucose solution (75 g glucose) with 4 Placebo tablets, or a glucose solution (75 g glucose) with 500 mg P. All were ingested with 250 ml of cold water. Blood was withdrawn at base-line and monitored till 240 min (min) after consumption.\n(§2) Serum was separated from collected blood samples and stored at −80° C. for later analysis of glucose, total P, tri-glyceride and insulin. Glucose was measured from venous samples. Insulin sensitivity was estimated by the method of Caumo A, Bergman R N, Cobelli C. Insulin sensitivity from meal tolerance tests in normal subjects: a minimal model index. J Clin. Endocrinol. Metab. 2000; 85:4396-402 and expressed as (×10^4 dl·kg^−1·min^−1·μUml^−1). The method is based on the kinetic of both glucose and insulin through coupling their rate of appearance into circulation following oral glucose ingestion. It is based on simple area under the curve type of calculation and was validated in normal subjects in whom their calculated insulin sensitivity was strongly correlated to that of frequently […] sampled IV glucose test (FSIGT). In addition, index of insulin sensitivity was calculated using the composite equation proposed by Matsuda M, DeFronzo R A. Insulin sensitivity indices obtained from oral glucose tolerance testing: comparison with the euglycemic insulin clamp. Diabetes Care. 1999; 22 (9):1462-7.\n(§3) Data are presented as means±SEM. Paired t-tests were used to compare between treatments and to detect the difference from baseline within each treatment. Repeated Measure ANOVA was run to test the effect of treatment groups over time on each of the dependent variables (P, Glucose and insulin). The level of significance was fixed at P <0.05."}, "[2]": {"tested_on": "healthy male subjects", "assay": "Experiment 2: effect of pre-phosphorus ingestion (60 min before glucose) on OGTT", "experimental": "as §1\nBased on data from experiment 1, peak serum P concentration (60 min) was associated with significant decrease in serum glucose and insulin levels. Thus, experiment 2 was designed to investigate whether P intake one hour prior to glucose ingestion would potentiate the effect of P on postprandial glucose and insulin levels. Eight over-night fasted subjects (age: 27.3±1.68 years; BMI: 23.5±0.97 kg/m^2) (Table 1: Experiment 2) attended 2 experimental sessions that were separated by a minimum of 3 days. Subjects were given placebo or P (500 mg) tab-lets 60 min prior to glucose ingestion. Blood was drawn at baseline (−60 min) and monitored till 240 min relative to glucose ingestion.\nas §2, §3"}, "[3]": {"tested_on": "subjects (unrestrained eaters, stable body weight)", "assay": "Ad libitum energy intake at subsequent meal after preloads with or without phosphorus", "conditions": "for Energy intake (ad libitum) at subsequent meal +P: lunch 80 min after preload, mean ± s.d.", "experimental": "A preliminary set of experiments was conducted to investigate the effect of increased phosphorus content of a preload solution on subsequent food intake. The effect of water, sucrose (50 g), fructose (40 g fructose plus 10 g glucose) or glucose (50 g) preloads was examined with or without the addition of 500 mg of phosphorus (mixture of potassium and sodium phosphate). This work was approved by the Institutional Review Board of the American University of Beirut and written informed consent was obtained from all subjects. In brief, participants who had stable body weight for the last 3 months and were unrest-rained eaters as assessed by the three-factor eating questionnaire were selected. All subjects were regular breakfast consumers and were asked to maintain their regular dietary and physical activity habits throughout the course of the example. Subjects were asked to avoid alcohol consumption, as well as any unusual strenuous exercise 24 h before the example. After a minimum of a 12-h fast, they consumed a standard breakfast (440 kcal) 4 h before presenting for the example. Participants chose a time between 1100 and 1400 to be convenient to perform the test; thereafter, they were asked to arrive at the same time on the same day of the week for the second study session. Thus, each experiment used a within-subject design, wherein each participant served as his or her own control.\nIn each experiment, two chilled preloads (with or without added phosphorus) were offered in a blind randomized order so as to control for the order-of-treatment effect. Each subject presented for two study days separated by a minimum of 1 week. […] At 80 min after the preload, an ad libitum lunch, consisting of standard pizza and water, was offered. Subjects were asked to eat freely until they felt ‘comfortably full’; both food and water intakes were measured. Water intake was measured by weight (g) and food or energy intake (kcal) was obtained from the overall weight of pizza consumed."}, "[4]": {"tested_on": "lean male subjects", "assay": "Postprandial energy expenditure after high carbohydrate meal with or without P (ventilated hood)", "conditions": "500 Kcal high carbohydrate meal with 500 mg of P", "experimental": "The objective was to determine the effect of phosphorus (P) ingestion with high carbohydrate meal on postprandial energy expenditure. P ingestion increases postprandial thermogenesis of the subjects.\nA cross over study was conducted on six lean male subjects. Subjects received a 500 Kcal high carbohydrate meal (CHO: 65% E; Fat: 31% E; Protein: 4% E) with (500 mg of P) or without P. Energy expenditure was measured at baseline and at 30 minute intervals for 4 hours following meal ingestion using a ventilated hood and canopy system COSMED QUARK CPET unit."}, "[5]": {"tested_on": "overweight/obese adults", "assay": "12-week double-blind randomized placebo-controlled phosphorus supplementation study", "experimental": "Participants: After approval of the study by the institutional review board at the American University of Beirut (Beirut, Lebanon), 63 adults aged 18 to 45 years with a BMI ≥25 kgm−2, who provided signed informed consent, were recruited from the general public using poster advertisements or direct approach. Exclusion criteria included glomerular filtration rate of 60 ml min−1 per 1.73 m^2, presence of any significant medical disease, pregnancy or lactation, regular administration of drugs that affect body weight and weight change of ≥3% within 3 months before the study. The enrollment of 40 subjects (20 per group) would detect a 10% change in weight of the placebo group, assuming the latter having a mean weight of 90 kg and s.d. of 10 kg, with 80% power and an a of 5%.\nThis double-blind, randomized, controlled study allocated subjects into placebo group (n=21) or phosphorus group (n=26). Participants were requested to take three tablets containing either 375 mg phosphorus or a placebo (Nutricap Labs, Farmingdale, N.Y., USA) with each main meal (breakfast, lunch and dinner) for 12 weeks. They were asked to maintain regular dietary and physical activity habits during the entire study course and avoid alcohol consumption and any strenuous exercise 24 h before their visits (at baseline, 6 weeks and 12 weeks). Assignment to intervention or control group was made by having the principle investigator (corresponding author) ask the eligible subjects to blindly draw an envelope from a large box of 100 opaque, sealed envelopes (50 for each group), each containing a 2-cm by 2-cm paper with a written code designating intervention or control. There were no detectable differences in size or weight between intervention and control envelopes. In addition, both researchers and participants were blinded for the type of supplements that were similar in size, shape, color and odor.\nSubjects were asked to attend the research unit at baseline and after 6 and 12 weeks of participation. At baseline, anthropometric measurements and blood samples were collected and a subjective appetite questionnaire based on Wilson et al. Appetite assessment: simple appetite questionnaire predicts weight loss in community-dwelling adults and nursing home residents. AJCN 2005; 82:1074-1081 was completed. Participants were given a 6-week supply of the allocated supplement and were asked to attend the research unit at the end of this period. At 6 weeks, remaining tablets were collected and counted in order to assess adherence to the allocated intervention. Participants were then given a supply of the same type of supplementation for the consequent 6 weeks and were asked to complete the subjective appetite questionnaire. At 12 weeks, data were collected similar to the baseline visit, and remaining tablets were counted to assess compliance. Individuals who consumed […] of the allocated tablets were excluded. Body weight and height (without shoes) were measured to the nearest 0.1 kg and 0.1 cm, using a calibrated Seca balance (Hamburg, Germany) and a portable stadiometer, respectively. […] Serum phosphorus, creatinine, C-reactive protein, total cholesterol, high-density lipoprotein cholesterol, triglyceride and glucose levels were measured using the Vitros 350 analyzer (Ortho Clinical Diagnostics, Johnson and Johnson, Buckinghamshire, UK). […] Fasting insulin concentration was measured using the ELISA kit (Diametra Millipore, Billerica, Mass., USA). […]"}, "[6]": {"conditions": "Experiment 2 (n = 8), 500 mg P 60 min prior to 75 g glucose, mean ± SEM"}}, "data": [{"smiles": "[P]", "note": "[Phosphorus, phosphorus]", "values": [{"measurement": "Postprandial insulin concentration", "setting": "[1]; 500 mg P alone", "result": "did not alter postprandial insulin concentration"}, {"measurement": "Postprandial serum P", "setting": "[1]; 500 mg P alone", "result": "increased serum P significantly"}, {"measurement": "Decrease in postprandial serum glucose concentration", "setting": "[1]; 500 mg P alone, during the experimental session (240 min), believed to be the result of fasting", "result": "around 5 mg/dl"}, {"measurement": "Insulin sensitivity [29]", "setting": "[1]; Experiment 1 (n = 7), 500 mg P co-ingested with 75 g glucose, mean ± SEM, Caumo et al. formula", "result": "20.22 ± 6.65 ×10^4 dl·kg^−1·min^−1·μUml^−1"}, {"measurement": "Insulin sensitivity index [30]", "setting": "[1]; Experiment 1 (n = 7), 500 mg P co-ingested with 75 g glucose, mean ± SEM, Matsuda composite equation", "result": "7.00 ± 1.06"}, {"measurement": "Insulin levels vs glucose treatment", "setting": "[1]; G+P (75 g glucose + 500 mg P), time 60 min, P=0.002", "result": "significantly lower"}, {"measurement": "Magnitude of increase in postprandial serum glucose vs glucose treatment", "setting": "[1]; G+P (75 g glucose + 500 mg P), time 60 min, P=0.016", "result": "significantly lower"}, {"measurement": "Magnitude of insulin increase vs placebo preload", "setting": "[2]; 500 mg P preload 60 min before 75 g glucose", "result": "modestly lower"}, {"measurement": "Serum P levels following P ingestion", "setting": "[2]; 500 mg P preload 60 min before glucose, time 0 and 15 min, then returned to baseline", "result": "increased significantly"}, {"measurement": "Insulin sensitivity [29]", "setting": "[2]; [6]", "result": "18.39 ± 3.28 ×10^4 dl·kg^−1·min^−1·μUml^−1"}, {"measurement": "Insulin sensitivity index [30]", "setting": "[2]; [6]", "result": "8.88 ± 0.78"}, {"measurement": "Energy intake (ad libitum) at subsequent meal +P", "setting": "[3]; Fructose (40 g fructose plus 10 g glucose) preload with 500 mg added phosphorus", "result": "676 ± 404", "unit": "kcal"}, {"measurement": "Energy intake (ad libitum) at subsequent meal +P", "setting": "[3]; Glucose (50 g) preload with 500 mg added phosphorus", "result": "652 ± 291", "unit": "kcal"}, {"measurement": "Energy intake (ad libitum) at subsequent meal +P", "setting": "[3]; Sucrose (50 g) preload with 500 mg added phosphorus", "result": "532 ± 341", "unit": "kcal"}, {"measurement": "Energy intake (ad libitum) at subsequent meal +P", "setting": "[3]; Water preload with 500 mg added phosphorus", "result": "1119 ± 210", "unit": "kcal"}, {"measurement": "Reduction in energy intake at the subsequent meal", "setting": "[3]; phosphorus added to fructose preload", "result": 35, "unit": "%"}, {"measurement": "Reduction in energy intake at the subsequent meal", "setting": "[3]; phosphorus added to glucose preload", "result": 25, "unit": "%"}, {"measurement": "Reduction in energy intake at the subsequent meal", "setting": "[3]; phosphorus added to sucrose preload", "result": 33, "unit": "%"}, {"measurement": "Reduction in energy intake at the subsequent meal", "setting": "[3]; phosphorus added to water preload", "result": 27, "unit": "%"}, {"measurement": "Postprandial energy expenditure vs placebo", "setting": "[4]; 4 hours, p=0.007", "result": "significantly higher"}, {"measurement": "Fat oxidation (%)", "setting": "[4]; p=0.022", "result": "significant rise"}, {"measurement": "Carbohydrate oxidation (%)", "setting": "[4]; p=0.023", "result": "decreased"}, {"measurement": "Change in BMI from baseline", "setting": "[5]; 375 mg phosphorus with each main meal, 12 weeks, 95% CI −0.59 to 0.12, P=0.01 vs placebo", "result": "−0.24", "unit": "kgm−2"}, {"measurement": "Decrease in body weight from baseline", "setting": "[5]; 375 mg phosphorus with each main meal, 12 weeks, 95% CI −1.69 to 0.40, P=0.01 vs placebo", "result": 0.65, "unit": "kg"}, {"measurement": "Reduction in waist circumference from baseline", "setting": "[5]; 375 mg phosphorus with each main meal, 12 weeks, 95% CI −4.90 to −2.33", "result": 3.62, "unit": "cm"}, {"measurement": "Changes in subjective appetite scores (appetite, quantity of food to reach fullness, taste of food, number of snacks) vs placebo", "setting": "[5]; baseline to 12 weeks", "result": "significantly reduced"}, {"measurement": "Side effects", "setting": "[5]; over the experimental period (12 weeks)", "result": "No side effects were reported"}]}]}
